Assays:
TRKA [1] = target: T1, TRKA (Homo sapiens (Human), UniProt P04629); assay: Isolated TRK enzyme assay (HTRF KinEASE-TK), TRKA; format: biochemical; details: isolated TRKA enzyme; read-out: TrkA enzyme potency
Target sequence in this assay (P04629 441-796): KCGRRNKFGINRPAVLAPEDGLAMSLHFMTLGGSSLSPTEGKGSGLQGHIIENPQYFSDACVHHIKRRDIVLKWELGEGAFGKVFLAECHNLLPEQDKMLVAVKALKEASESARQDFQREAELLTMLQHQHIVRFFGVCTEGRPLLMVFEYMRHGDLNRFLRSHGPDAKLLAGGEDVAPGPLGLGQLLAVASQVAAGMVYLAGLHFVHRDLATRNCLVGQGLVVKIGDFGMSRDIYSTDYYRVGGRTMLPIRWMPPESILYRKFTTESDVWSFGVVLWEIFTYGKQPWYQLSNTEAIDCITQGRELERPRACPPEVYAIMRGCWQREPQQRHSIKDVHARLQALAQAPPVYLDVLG

TRKB [2] = target: T2, TRKB (Homo sapiens (Human), UniProt Q16620); assay: biochemical; details: isolated TRKB enzyme; read-out: TrkB enzyme potency
TRKB [3] = target: T2, TRKB; assay: cell-based; details: TrkB cell potency, TRKB PathHunter cell line
Method: (§1) After the Detection Reagent addition, plates are covered and incubated at room temperature for 60 minutes. […] Test compound data are expressed as percentage inhibition defined by HPE and ZPE values for each plate. Percentage inhibition in the presence of test compound is plotted against compound concentration on a log scale to determine an IC50 from the resultant sigmoid curve. Cell Based Assays were carried out using Cell lines from DiscoveRx utilising their PathHunter technology and reagents in an antagonist assay:
(§2) The assays are based upon DiscoveRx's proprietary Enzyme Fragment Complementation (EFC) technology. In the case of the TRK cell lines, the enzyme acceptor (EA) protein is fused to a SH2 protein and the TRK receptor of interest has been tagged with a Prolink tag.
(§3) Upon neurotrophin binding, the TRK receptor becomes phosphorylated, and the tagged SH2 protein binds.
(§4) This means that the IC50 is a good measure of affinity and should be unaffected by concentration neurotrophin stimulant.
(§5) Cryopreserved PathHunter cells are used from either in-house produced batches or bulk batches bought directly from DiscoveRx. Cryopreserved cells are resuscitated, spun 1000 rpm for 4 min to remove freezing media, and resuspended in MEM+0.5% horse serum (both Invitrogen) to 5e^5 cells/ml. The cells are then plated using a Multidrop into Greiner white tissue culture treated plates at 20 ul/well and incubated for 24 h at 37° C., 5% CO2, high humidity. On the day of the assay, the cell plates are allowed to cool to room temperature for 30 min prior to the assay.
(§6) Plates containing 1 ul of serially diluted compound, standard and HPE/ZPE are diluted 1/66 in assay buffer (PBS minus Ca^2+, minus Mg^2+ with 0.05% pluronic F127) using a Wellmate. […] The plates are left at room temperature for a further 2 hours before addition of 10 ul of the DiscoveRx PathHunter detection reagent (made up by adding 1 part Galacton Star, 5 parts Emerald II and 19 parts Cell Assay Buffer as per the manufacturer's instructions).
(§7) After reagent addition, plates are covered and incubated at room temperature for 60 minutes. Luminescence signal is read using an Envision. Test compound data are expressed as percentage inhibition defined by HPE and ZPE values for each plate. Percentage inhibition in the presence of test compound is plotted against compound concentration on a log scale to determine an […] from the resultant sigmoid curve.

TRKA [4] = target: T1, TRKA; assay: Cell based DiscoveRx PathHunter antagonist assay, TRKA cell line; details: read-out: TrkA cell potency
Method: as §1, §2, §3, §4, §5, §6, §7
Target sequence in this assay (P04629 33-796): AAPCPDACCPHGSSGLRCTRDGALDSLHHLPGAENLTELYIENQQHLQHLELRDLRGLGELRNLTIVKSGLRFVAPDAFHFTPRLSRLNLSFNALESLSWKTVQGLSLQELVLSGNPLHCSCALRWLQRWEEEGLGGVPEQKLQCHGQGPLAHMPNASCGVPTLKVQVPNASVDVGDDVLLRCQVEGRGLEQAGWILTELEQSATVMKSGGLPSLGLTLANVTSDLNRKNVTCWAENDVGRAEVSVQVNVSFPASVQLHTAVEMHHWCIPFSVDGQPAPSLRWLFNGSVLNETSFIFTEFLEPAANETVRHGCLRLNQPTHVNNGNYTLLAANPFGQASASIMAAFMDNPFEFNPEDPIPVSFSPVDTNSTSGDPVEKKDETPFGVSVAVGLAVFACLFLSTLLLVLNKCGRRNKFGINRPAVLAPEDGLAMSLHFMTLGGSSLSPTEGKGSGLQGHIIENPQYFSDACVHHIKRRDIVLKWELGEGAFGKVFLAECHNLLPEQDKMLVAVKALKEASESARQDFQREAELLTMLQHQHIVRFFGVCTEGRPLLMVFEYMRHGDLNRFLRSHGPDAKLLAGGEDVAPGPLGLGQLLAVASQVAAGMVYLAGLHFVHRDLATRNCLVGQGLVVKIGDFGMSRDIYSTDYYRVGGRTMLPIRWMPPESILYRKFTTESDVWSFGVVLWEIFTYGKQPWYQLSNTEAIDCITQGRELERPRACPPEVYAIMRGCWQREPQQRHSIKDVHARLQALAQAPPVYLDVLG

MDR1 = MDR1 (Homo sapiens (Human), UniProt P08183); assay: MDCK-MDR1 assay (in vitro brain penetration); format: in vitro ADME; details: for Papp B→A / Papp A→B: human; for Papp B→A: MDCK-MDR1, MDCK-MDR1, B to A, read-out: MDCK MDR1 Papp BA; for Papp A→B / MDCK MDR1 Papp AB: MDCK-MDR1, A to B; for Papp A→B: read-out: MDCK MDR1 Papp AB; for MDCK MDR1 Papp BA: MDCK-MDR1, B to A
MDR1, sequence (P08183 whole entry): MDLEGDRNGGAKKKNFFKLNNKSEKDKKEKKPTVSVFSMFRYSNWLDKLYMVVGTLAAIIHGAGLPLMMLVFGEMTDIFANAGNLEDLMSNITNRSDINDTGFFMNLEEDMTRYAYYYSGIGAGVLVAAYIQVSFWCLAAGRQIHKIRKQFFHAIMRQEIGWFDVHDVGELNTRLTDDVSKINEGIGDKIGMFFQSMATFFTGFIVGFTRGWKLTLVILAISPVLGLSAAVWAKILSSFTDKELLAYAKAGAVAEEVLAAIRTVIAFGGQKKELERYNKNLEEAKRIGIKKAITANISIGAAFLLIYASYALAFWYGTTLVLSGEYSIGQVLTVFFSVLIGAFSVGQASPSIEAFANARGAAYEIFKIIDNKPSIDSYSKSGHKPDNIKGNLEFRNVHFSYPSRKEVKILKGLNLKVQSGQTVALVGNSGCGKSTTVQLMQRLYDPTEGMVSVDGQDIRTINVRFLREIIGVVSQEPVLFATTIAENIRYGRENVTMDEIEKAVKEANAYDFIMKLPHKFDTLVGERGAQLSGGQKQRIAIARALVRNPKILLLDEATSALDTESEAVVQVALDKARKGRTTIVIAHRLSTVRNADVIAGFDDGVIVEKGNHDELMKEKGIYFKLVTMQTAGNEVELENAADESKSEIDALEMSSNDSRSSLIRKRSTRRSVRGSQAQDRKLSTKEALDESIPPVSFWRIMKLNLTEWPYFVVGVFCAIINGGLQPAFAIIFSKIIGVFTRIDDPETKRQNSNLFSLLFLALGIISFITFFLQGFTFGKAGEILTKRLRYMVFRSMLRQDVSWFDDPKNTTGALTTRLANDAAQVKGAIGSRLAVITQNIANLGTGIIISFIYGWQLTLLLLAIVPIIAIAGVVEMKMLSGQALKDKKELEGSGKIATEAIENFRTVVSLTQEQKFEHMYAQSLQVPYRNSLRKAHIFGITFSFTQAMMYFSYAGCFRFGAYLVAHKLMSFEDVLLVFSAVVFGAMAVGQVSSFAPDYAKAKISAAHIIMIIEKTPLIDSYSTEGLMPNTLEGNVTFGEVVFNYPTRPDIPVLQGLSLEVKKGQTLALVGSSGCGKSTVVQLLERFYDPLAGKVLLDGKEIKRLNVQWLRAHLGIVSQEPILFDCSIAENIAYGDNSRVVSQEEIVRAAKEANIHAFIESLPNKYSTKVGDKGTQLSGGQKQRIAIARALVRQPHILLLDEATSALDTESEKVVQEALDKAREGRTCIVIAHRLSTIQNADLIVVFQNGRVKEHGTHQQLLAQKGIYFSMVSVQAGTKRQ
Text: MDCK-MDR1: MDCK-MDR1 data were collected according to the method described in “Are MDCK Cells Transfected with the Human MDR1 Gene a Good Model of the Human Intestinal Mucosa?”
http://www.springerlink.com/content/qfhqlqbr4fnp3 khf/fulltext.pdf

T2 sequence (Q16620 32-822 limits assumed): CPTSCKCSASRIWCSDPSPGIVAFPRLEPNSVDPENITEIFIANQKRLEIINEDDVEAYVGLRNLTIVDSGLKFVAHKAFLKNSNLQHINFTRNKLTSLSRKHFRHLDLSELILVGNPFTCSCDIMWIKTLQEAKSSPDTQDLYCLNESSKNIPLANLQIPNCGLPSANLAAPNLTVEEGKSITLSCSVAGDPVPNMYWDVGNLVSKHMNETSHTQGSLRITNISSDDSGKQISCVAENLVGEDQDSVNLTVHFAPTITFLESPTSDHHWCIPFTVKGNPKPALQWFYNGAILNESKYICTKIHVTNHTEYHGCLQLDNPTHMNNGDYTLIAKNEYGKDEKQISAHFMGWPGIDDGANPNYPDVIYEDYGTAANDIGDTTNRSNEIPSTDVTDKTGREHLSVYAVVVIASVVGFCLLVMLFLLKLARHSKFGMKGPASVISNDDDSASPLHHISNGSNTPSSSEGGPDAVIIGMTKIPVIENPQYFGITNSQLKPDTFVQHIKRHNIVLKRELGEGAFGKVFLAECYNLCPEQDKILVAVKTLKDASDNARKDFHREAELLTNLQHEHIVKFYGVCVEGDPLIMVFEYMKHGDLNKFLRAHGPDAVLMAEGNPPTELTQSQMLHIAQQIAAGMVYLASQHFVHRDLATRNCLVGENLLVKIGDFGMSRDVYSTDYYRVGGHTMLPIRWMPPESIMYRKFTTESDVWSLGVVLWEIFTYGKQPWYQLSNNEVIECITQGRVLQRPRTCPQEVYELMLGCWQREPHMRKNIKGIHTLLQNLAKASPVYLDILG

| Compound | IC50 (TRKA [1]) [nM] | IC50 (TRKB [2]) [nM] | IC50 (TRKB [3]) [nM] | IC50 (TRKA [4]) [nM] | Papp B→A (MDR1) [×10⁻⁶ cm/s] | Papp A→B (MDR1) [×10⁻⁶ cm/s] | MDCK MDR1 Papp AB (MDR1) [cm/s] | MDCK MDR1 Papp BA (MDR1) [cm/s] |
| --- | --- | --- | --- | --- | --- | --- | --- | --- |
| CC(C)(C)n1cc(C(=O)c2cncc(NC(=O)Cc3ccc(F)cn3)c2)c2cncnc21 [Example 1, N-{5-[(7-tert-Butyl-7H-pyrrolo[2,3-d]pyrimidin-5-yl)carbonyl]pyridin-3-yl}-2-(5-fluoropyridin-2-yl)acetamide] | 3.7 | – | 1.5 | 9.5 | 14 | 5.5 | – | – |
| CC(C)(C)n1cc(C(=O)c2cncc(NC(=O)Cn3ccc(C4CC4)n3)c2)c2cncnc21 [Example 3, N-{5-[(7-tert-butyl-7H-pyrrolo[2,3-d]pyrimidin-5-yl)carbonyl]pyridin-3-yl}-2-(3-cyclopropyl-1H-pyrazol-1-yl)acetamide] | 4.1 | – | 1.8 | 5.1 | 20 | 8.7 | – | – |
| CC(C)(C)n1cc(C(=O)c2cncc(NC(=O)Cc3ccc(Cl)cn3)c2)c2cncnc21 [Example 6, N-{5-[(7-tert-butyl-7H-pyrrolo[2,3-d]pyrimidin-5-yl)carbonyl]pyridin-3-yl}-2-(5-chloropyridin-2-yl)acetamide] | 2.5 | – | 1.3 | 2 | 16 | 6.9 | – | – |
| CC(C)(C)n1cc(C(=O)c2cncc(NC(=O)Cn3cc(C4CC4)cn3)c2)c2cncnc21 [Example 7, N-{5-[(7-tert-butyl-7H-pyrrolo[2,3-d]pyrimidin-5-yl)carbonyl]pyridin-3-yl}-2-(4-cyclopropyl-1H-pyrazol-1-yl)acetamide] | 11 | 41 | 0.8 | 2.1 | 20 | 5.6 | – | – |
| Cc1cc(C(F)(F)F)nn1CC(=O)Nc1cncc(C(=O)c2cn([C@H](C)CO)c3ncncc23)c1 [Example 17, N-[5-({7-[(1R)-2-Hydroxy-1-methylethyl]-7H-pyrrolo[2,3-d]pyrimidin-5-yl}carbonyl)pyridin-3-yl]-2-[5-methyl-3-(trifluoromethyl)-1H-pyrazol-1-yl]acetamide] | 23 | – | 45 | 103 | 13 | < 1 | – | – |
| C[C@H](CO)n1cc(C(=O)c2cncc(NC(=O)Cn3cc(C4CC4)nn3)c2)c2cncnc21 [Example 18, 2-(4-cyclopropyl-1H-1,2,3-triazol-1-yl)-N-[5-({7-[(1R)-2-hydroxy-1-methylethyl]-7H-pyrrolo[2,3-d]pyrimidin-5-yl}carbonyl)pyridin-3-yl]acetamide] | 128 | – | 5300 | > 8660 | < 1 | < 1 | – | – |
| C[C@H](CO)n1cc(C(=O)c2cncc(NC(=O)Cn3cc(C(F)(F)F)nn3)c2)c2cncnc21 [Example 21, N-[5-({7-[(1R)-2-hydroxy-1-methylethyl]-7H-pyrrolo[2,3-d]pyrimidin-5-yl}carbonyl)pyridin-3-yl]-2-[4-(trifluoromethyl)-1H-1,2,3-triazol-1-yl]acetamide] | 71 | – | 1770 | 5740 | 1.3 | < 1 | – | – |
| C[C@H](CO)n1cc(C(=O)c2cncc(NC(=O)Cn3ccc(C(F)(F)F)n3)c2)c2cncnc21 [Example 22, N-[5-({7-[(1R)-2-hydroxy-1-methylethyl]-7H-pyrrolo[2,3-d]pyrimidin-5-yl}carbonyl)pyridin-3-yl]-2-[3-(trifluoromethyl)-1H-pyrazol-1-yl]acetamide] | 25 | – | 190 | 596 | 6.9 | < 1 | – | – |

Now from value to compound:

| IC50 (TRKA [1]) [nM] | IC50 (TRKB [2]) [nM] | IC50 (TRKB [3]) [nM] | IC50 (TRKA [4]) [nM] | Papp B→A (MDR1) [×10⁻⁶ cm/s] | Papp A→B (MDR1) [×10⁻⁶ cm/s] | MDCK MDR1 Papp AB (MDR1) [cm/s] | MDCK MDR1 Papp BA (MDR1) [cm/s] | Compound |
| --- | --- | --- | --- | --- | --- | --- | --- | --- |
| 8.9 | 223 | 37 | 103 | 5.3 | < 1 | – | – | CC(CO)n1cc(C(=O)c2cncc(NC(=O)Cc3ccc(Cl)cn3)c2)c2cnc(N)nc21 (single isomer, unassigned) [Example 35, N-(5-{[2-amino-7-(2-hydroxy-1-methylethyl)-7H-pyrrolo[2,3-d]pyrimidin-5-yl]carbonyl}pyridin-3-yl)-2-(5-chloropyridin-2-yl)acetamide] |
| 24 | – | 4710 | > 8660 | < 1 | < 1 | – | – | CC(CO)n1cc(C(=O)c2cncc(NC(=O)Cn3cc(C(F)(F)F)nn3)c2)c2cnc(N)nc21 (single isomer, unassigned) [Example 39, N-(5-{[2-amino-7-(2-hydroxy-1-methylethyl)-7H-pyrrolo[2,3-d]pyrimidin-5-yl]carbonyl}pyridin-3-yl)-2-[4-(trifluoromethyl)-1H-1,2,3-triazol-1-yl]acetamide] |
| 67 | – | 506 | 2580 | 2.4 | < 1 | – | – | CC(CO)n1cc(C(=O)c2cncc(NC(=O)Cc3ccc(F)cn3)c2)c2cnc(N)nc21 (single isomer, unassigned) [Example 40, N-(5-{[2-amino-7-(2-hydroxy-1-methylethyl)-7H-pyrrolo[2,3-d]pyrimidin-5-yl]carbonyl}pyridin-3-yl)-2-(5-fluoropyridin-2-yl)acetamide] |
| 7.6 | – | 70 | 203 | – | – | <1e-06 | 6.3e-06 | CC(CO)n1cc(C(=O)c2cncc(NC(=O)Cc3ccc(Cl)cn3)c2)c2cnc(N)nc21 (single isomer, unassigned) [Example 41, N-(5-{[2-amino-7-(2-hydroxy-1-methylethyl)-7H-pyrrolo[2,3-d]pyrimidin-5-yl]carbonyl}pyridin-3-yl)-2-(5-chloropyridin-2-yl)acetamide] |
| 12 | – | 554 | 996 | – | – | <1e-06 | 1.6e-06 | CC(CO)n1cc(C(=O)c2cncc(NC(=O)Cn3ccc(C(F)(F)F)n3)c2)c2cnc(N)nc21 (single isomer, unassigned) [Example 44, N-(5-{[2-amino-7-(2-hydroxy-1-methylethyl)-7H-pyrrolo[2,3-d]pyrimidin-5-yl]carbonyl}pyridin-3-yl)-2-[3-(trifluoromethyl)-1H-pyrazol-1-yl]acetamide] |
| 25 | – | 3790 | > 8660 | – | – | <1e-06 | <1e-06 | CC(CO)n1cc(C(=O)c2cncc(NC(=O)Cn3cc(C(F)(F)F)nn3)c2)c2cnc(N)nc21 (single isomer, unassigned) [Example 45, N-(5-{[2-amino-7-(2-hydroxy-1-methylethyl)-7H-pyrrolo[2,3-d]pyrimidin-5-yl]carbonyl}pyridin-3-yl)-2-[4-(trifluoromethyl)-1H-1,2,3-triazol-1-yl]acetamide] |
| 26 | – | 52 | 93 | 31 | < 1 | – | – | C[C@H](CO)n1cc(C(=O)c2cncc(NC(=O)Cc3ccc(Cl)cn3)c2)c2cncnc21 [Example 23, 2-(5-chloropyridin-2-yl)-N-[5-({7-[(1R)-2-hydroxy-1-methylethyl]-7H-pyrrolo[2,3-d]pyrimidin-5-yl}carbonyl)pyridin-3-yl]acetamide] |
| 18 | – | 198 | 401 | 2.6 | < 1 | – | – | CC(C)(CO)n1cc(C(=O)c2cncc(NC(=O)Cn3cc(C4CC4)nn3)c2)c2cncnc21 [Example 31, 2-(4-cyclopropyl-1H-1,2,3-triazol-1-yl)-N-(5-{[7-(2-hydroxy-1,1-dimethylethyl)-7H-pyrrolo[2,3-d]pyrimidin-5-yl]carbonyl}pyridin-3-yl)acetamide] |
| 6.7 | – | 174 | 368 | 1.3 | < 1 | – | – | CC(C)(CO)n1cc(C(=O)c2cncc(NC(=O)Cn3cc(C(F)(F)F)nn3)c2)c2cnc(N)nc21 [Example 54, N-(5-{[2-Amino-7-(2-hydroxy-1,1-dimethylethyl)-7H-pyrrolo[2,3-d]pyrimidin-5-yl]carbonyl}pyridin-3-yl)-2-[4-(trifluoromethyl)-1H-1,2,3-triazol-1-yl]acetamide] |
